For one experiment, the target named is T1, humanized OX2 receptor (Homo sapiens, UniProt O43614).
T1 construct: expressed in transfected cells; host or cells: HEK-293 cells
T1 sequence (O43614 1-444): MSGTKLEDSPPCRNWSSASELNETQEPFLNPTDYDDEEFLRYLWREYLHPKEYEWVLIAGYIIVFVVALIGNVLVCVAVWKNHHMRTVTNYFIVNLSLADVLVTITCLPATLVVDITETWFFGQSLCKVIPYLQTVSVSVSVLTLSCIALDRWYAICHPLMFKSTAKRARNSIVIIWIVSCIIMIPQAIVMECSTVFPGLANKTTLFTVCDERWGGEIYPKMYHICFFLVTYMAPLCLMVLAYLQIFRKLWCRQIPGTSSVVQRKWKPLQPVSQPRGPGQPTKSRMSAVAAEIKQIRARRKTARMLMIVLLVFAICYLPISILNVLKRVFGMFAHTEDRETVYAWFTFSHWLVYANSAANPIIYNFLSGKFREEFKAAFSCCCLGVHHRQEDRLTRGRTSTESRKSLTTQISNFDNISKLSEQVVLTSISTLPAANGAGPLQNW
The experiment is described as follows: Antagonistic effect on humanized OX2 receptor, calcium flux by fluorescence detection in HEK-293 cells. As to conditions: HEK-293 cells, calcium flux induced by 10 nM orexin B; read-out: OX2 IC50. The class given is cell-based. As to the method:
The capability of the compounds provided herein to antagonize humanized OX2 receptors expressed in HEK-293 cells was evaluated by the influence of the compounds disclosed herein on calcium flux in cells induced by agonist detected by a method of fluorescence detection. The cells were suspended in DMEM culture medium (invitrogen), and then added to a microplate with an average density of 3×10^4 cells/well. The Hank's balanced salt solution (pH 7.4) containing fluorescent probes (Fluo4 NW, Invitrogen), probenecid (invitrogen), 20 mM […] (invitrogen) was added to the above microplate, and then incubated together with the cells at 37° C. for 60 min, further incubated at 22° C. for 15 min. The microplate was placed in a microplate reader (CellLux, PerkinElmer), and to which was added the test compound or reference antagonist or Hank's balanced salt solution, 5 min later, 10 nM of orexin B or Hank's balanced salt solution (as a blank contrast) was added. […] The experimental results were expressed as an inhibition percentage relative to a control group (the group with 10 nM of orexin B).
The standard reference antagonist is JNJ10397049, and IC50 values were calculated by the dose-effect curve obtained from a series of concentrations of the experimental test.

The target of a further experiment is T2, hERG channel (Homo sapiens, UniProt Q12809).
T2 construct: purchased Invitrogen
Description: hERG fluorescence polarization assay (potential of inducing QT interval prolongation). The class given is binding. Here is the method: The potential of the compound disclosed herein inducing QT interval prolongation was evaluated by detecting if the compound would block the hERG channel. The specific test method is as follows:
Precisely weighed compound disclosed herein was dissolved in DMSO to formulate a solution at the highest concentration of 10.0 mM, and then the solution was diluted to a initial concentration of 120.0 μM with hERG FP Assay Buffer (Invitrogen); the hERG Tracer Red stock solution (Invitrogen) and the positive control E-4031 stock solution (Invitrogen) were respectively diluted to initial concentrations of 4.0 nM and 120.0 μM with hERG FP Assay Buffer (Invitrogen). […]
The above-mentioned solution of the compound disclosed herein and E-4031 at the initial concentration of 120 μM were respectively diluted with hERG FP Assay Buffer 5-fold in series to provide 8 concentration of 120.0 μM, 24.0 μM, 4.8 μM, 960.0 nM, 192.0 nM, 38.4 nM, 7.7 nM and 1.5 nM. […] After that, the 384-well plate was put into an oscillator (PHMP-4, Grant-sio), in 25° C., 250 rpm, to incubate for 4 hours, and the fluorescence polarization values were measured by multi-function microplate reader (PHERAStarFS, BMG LABTECH) and corrected with the minimum and maximum fluorescence polarization values of E-4031, and the IC50 of the compound disclosed herein was calculated by GraphPad software. […]
On the technique in general: The hERG channel carries a current that helps repolarise heart muscle cells.

Data on 1 molecule can be found in US10370380B2, “Octahydropyrrolo[3,4-c]pyrrole derivatives and uses thereof” (Sunshine Lake Pharma Co., Ltd., priority 2015, dated 2019).

T2 sequence (Q12809 whole entry): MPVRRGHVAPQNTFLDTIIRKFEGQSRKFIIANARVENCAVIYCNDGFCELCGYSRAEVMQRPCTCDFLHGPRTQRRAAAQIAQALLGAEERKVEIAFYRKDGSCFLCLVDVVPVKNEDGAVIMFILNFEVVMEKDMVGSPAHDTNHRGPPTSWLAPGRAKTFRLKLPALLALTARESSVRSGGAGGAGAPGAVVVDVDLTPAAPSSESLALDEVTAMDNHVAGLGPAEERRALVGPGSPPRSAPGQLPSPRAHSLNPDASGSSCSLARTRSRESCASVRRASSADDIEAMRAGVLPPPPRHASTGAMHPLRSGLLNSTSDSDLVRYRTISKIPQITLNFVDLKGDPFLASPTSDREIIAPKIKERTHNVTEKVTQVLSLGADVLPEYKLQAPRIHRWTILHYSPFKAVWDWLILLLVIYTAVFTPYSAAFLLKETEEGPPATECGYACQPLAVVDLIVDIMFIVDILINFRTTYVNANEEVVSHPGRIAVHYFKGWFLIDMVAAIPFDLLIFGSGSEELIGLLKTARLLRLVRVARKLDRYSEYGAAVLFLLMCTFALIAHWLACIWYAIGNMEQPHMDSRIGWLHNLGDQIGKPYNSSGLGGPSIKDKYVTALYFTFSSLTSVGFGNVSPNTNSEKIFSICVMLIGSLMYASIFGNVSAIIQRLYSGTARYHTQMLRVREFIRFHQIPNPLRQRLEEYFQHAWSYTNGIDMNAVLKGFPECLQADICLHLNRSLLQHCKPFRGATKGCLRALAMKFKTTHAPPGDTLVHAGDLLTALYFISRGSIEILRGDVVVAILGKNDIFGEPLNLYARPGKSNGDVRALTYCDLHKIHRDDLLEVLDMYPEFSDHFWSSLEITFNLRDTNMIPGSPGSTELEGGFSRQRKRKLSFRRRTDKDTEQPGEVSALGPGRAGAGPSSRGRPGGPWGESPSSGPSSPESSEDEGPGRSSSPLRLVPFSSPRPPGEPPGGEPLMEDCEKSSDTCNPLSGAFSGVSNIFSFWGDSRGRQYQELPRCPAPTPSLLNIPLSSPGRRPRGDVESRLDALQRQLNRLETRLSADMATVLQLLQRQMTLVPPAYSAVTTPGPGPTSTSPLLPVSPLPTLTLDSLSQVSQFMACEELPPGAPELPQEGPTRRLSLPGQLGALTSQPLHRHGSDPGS

One may read the IC50 as the concentration at which inhibition is half-maximal. In the case of `Cc1ccc(-n2nccn2)c(C(=O)N2CC3CN(c4nc5cc(Cl)ccc5o4)CC3C2)c1` (centres unmarked) [Example 1, (5-(5-chlorobenzo[d]oxazol-2-yl)hexahydropyrrolo[3,4-c]pyrrol-2(1H)-yl)(5-methyl-2-(2H-1,2,3-triazol-2-yl)phenyl)methanone], the IC50 on humanized OX2 receptor amounted to 308 nM; against hERG channel it was 3280 nM.
